This is an account of results in BindingDB's records for doi:10.1021/acs.biochem.5b00536 (University of Pennsylvania, 2015).

The target in one test is T1, Histone deacetylase 8 (Homo sapiens, UniProt Q9BY41).
T1 sequence (Q9BY41 whole entry): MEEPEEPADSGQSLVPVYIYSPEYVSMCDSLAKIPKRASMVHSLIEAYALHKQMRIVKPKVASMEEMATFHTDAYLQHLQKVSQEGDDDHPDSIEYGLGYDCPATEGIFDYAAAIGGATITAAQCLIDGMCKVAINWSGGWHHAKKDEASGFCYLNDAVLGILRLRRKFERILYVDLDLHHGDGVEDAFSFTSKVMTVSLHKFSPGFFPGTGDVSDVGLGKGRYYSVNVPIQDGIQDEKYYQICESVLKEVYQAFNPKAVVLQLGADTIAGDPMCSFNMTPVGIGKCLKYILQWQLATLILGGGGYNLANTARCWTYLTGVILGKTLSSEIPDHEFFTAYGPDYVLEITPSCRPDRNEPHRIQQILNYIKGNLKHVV
Kind of test: HDAC8 Fluorimetric Assay. The conditions noted are these: pH 8.2. The protocol: Activity assays were conducted at 25 °C and contained 500 nM HDAC8 enzyme, 150 μM Ac-Arg-His-Lys(Ac)-Lys(Ac)-aminomethylcoumarin substrate (BML-KI178, Enzo Life Sciences), and 0−10 mM inhibitor in assay buffer [25 mM Tris (pH 8.2), 137 mM NaCl, 2.7 mM KCl, and 1 mM MgCl2; 250 μM tris(2-carboxyethyl)phosphine was added for the assay of thiol compound 2] in a final volume of 50 μL. […] After 30 min, reactions were quenched by adding 100 μM M344 (Sigma-Aldrich) and the appropriate Fluor-de-Lys developer (BMLKI176, Enzo Life Sciences, 50 μL). Fluorescence was measured after 45 min using a Fluoroskan II plate reader (excitation at 355 nm, emission at 460 nm).

The target in test [1] is T2, Acetylpolyamine amidohydrolase (Mycoplana ramosa, UniProt Q48935).
T2 sequence (Q48935 whole entry): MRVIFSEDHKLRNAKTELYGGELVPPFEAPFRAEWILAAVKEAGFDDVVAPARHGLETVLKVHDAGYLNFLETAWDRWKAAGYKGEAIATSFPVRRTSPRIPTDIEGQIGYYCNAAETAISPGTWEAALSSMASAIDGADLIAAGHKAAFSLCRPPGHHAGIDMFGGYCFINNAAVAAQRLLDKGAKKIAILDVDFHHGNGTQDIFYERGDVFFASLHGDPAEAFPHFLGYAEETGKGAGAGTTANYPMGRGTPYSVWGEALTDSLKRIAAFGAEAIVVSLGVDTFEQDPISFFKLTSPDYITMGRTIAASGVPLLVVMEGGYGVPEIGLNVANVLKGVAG
As to the kind of experiment: APAH Fluorimetric Assay. The conditions noted are these: pH 8.2. How it is done: Activity assays were conducted at 25 °C and contained 250 nM APAH (∼50% Zn2+ occupancy), 150 μM substrate, and 0−250 μM inhibitor in assay buffer [25 mM Tris (pH 8.2), 137 mM NaCl, 2.7 mM KCl, and 1 mM MgCl2] in a final volume of 50 μL. […] After 30 min, reactions were quenched by adding 100 μM M344 (Sigma-Aldrich) and the appropriate Fluor-de-Lys developer (BML-KI105, Enzo Life Sciences, 50 μL). Fluorescence was measured after 45 min using a Fluoroskan II plate reader (excitation at 355 nm, emission at 460 nm).

`NCCCCCCC(=O)NO`: the concentration for half-maximal inhibition (IC50) – broadly, the midpoint of a concentration-inhibition curve – against Histone deacetylase 8 was determined as 5300 nM; in test [1] it was 68 nM.
In turn, `NCCCNCCCCCS` [(3-azaniumylpropyl)(5-sulfanylpentyl)azanium (2)] showed a half-maximal inhibitory concentration (IC50) at Histone deacetylase 8 of 12000 nM.
As for `NCCCCCC(=O)NO`, the IC50 on Histone deacetylase 8 worked out at 19000 nM; in test [1] it was 130 nM.
At Histone deacetylase 8, `NCCCNCCCCCC(=O)NO` [(3-azaniumylpropyl)[5-(hydroxycarbamoyl)pentyl]azanium (3)] showed a half-inhibitory concentration (IC50) of 14000 nM. This lies in the double-digit micromolar range.
As for `NCCCCC(=O)NO` [5-Amino-N-hydroxypentanamide (4)], the IC50 is 120000 nM at Histone deacetylase 8 and 170 nM in test [1].
Regarding `NCCCNCCCCCC(=O)C(F)(F)F` [(3-azaniumylpropyl)(7,7,7-trifluoro-6-oxoheptyl)azanium (1)], the 50% inhibitory concentration (IC50) on Histone deacetylase 8 worked out at 260 nM.
For the compound `NCCCCCCCC(=O)NO`, the IC50 was determined as 2200 nM on Histone deacetylase 8 and 150 nM in test [1].
